Laboratory results taken from patent publication US4122179A, “Acid addition salts of vincamine and apovincamine” (priority 1976, dated 1978).

How the values were obtained:
Solubility = assay type: physicochemical; conditions: qualitative; for solubility in alcohol: alcohol (ethyl alcohol)
[1] = LD50 / acute toxicity, intraperitoneal route; assay type: in vivo; conditions: i.p.; for Toxicity (Gleason): Gleason class in words, classes not defined
[2] = Hematic levels at different times after oral administration (absorption); assay type: in vivo, Wistar rat; conditions: 100 mg/kg expressed as vincamine/apovincamine, 5% carboxymethyl cellulose suspension
Description: (§1) For the compounds of the present invention a number of pharmacological and pharmacokinetic tests have been carried out. […] As regards the pharmacological and pharmacodynamic activity, it has been studied on the percent variations of the hematic flow, as recorded at the vertebral arteria in the dog after administration of the tested compounds. As regards the pharmacokinetic tests, the compounds were administered per oral route to the Wistar rat, and the hematic levels at different times from the administration were measured.
For the evaluation of the absorption, all the compounds have been orally administered at the dosage of 100 mg/kg, expressed as vincamine and apovincamine, in form of a suspension in a 5% carboxymethyl cellulose solution.
The absorption was determined by evaulating the hematic levels at the following times (minutes) : 0, 30, 120, 240, 480, 10 hours and 12 hours, in order also to assess the time from the administration (max conc.time) the maximum absorption occurred.
The vincamine and apovincamine concentrations were assessed by chromatographic method.
For the evaluation of the prolonged action of the salts and of the adducts of vincamine and apovincamine the following criterium was adopted; as derivatives having a long-acting effect, there are considered those which, 120 minutes after the administration, show hematic levels higher than those obtained with vincamine and apovincamine.

vertebral arteria = test: Cerebral vasodilating activity: hematic flow at the vertebral arteria after i.v. administration; assay type: in vivo; conditions: i.v. (femoral vein), 5 mg/kg of vincamine/apovincamine, anesthetized dog, 4 animals per compound
Description: as §1
The cerebral vasodilating activity was studied in the anestetized dog, by measuring, by means of Statham periarterial electromagnetic flowmeters, the hematic flow at the level of the […] which, in such animal species, constitutes the greatest blood supply to the brain.
The resuls are reported in the TABLE 2 (last column) as the percent variations of the flow measured at the level of the ledt vertebral arteria after the i.v. administration of the several compounds to be tested to groups of 4 animals for each compound. The results also confirm that the compounds of the invention are all endowed with a vasodilating activity at the level of the cerebral circulus, such an action being, for some compounds, much more remarkable than that of vincamine and apovincamine.

Row | Compound | solubility in the common (organic) solvents (Solubility) | solubility in water (Solubility) | LD50 [1] [mg/kg] | Toxicity (Gleason) [1] | Max. conc. time ([2]; 100 mg/kg) [min] | % increase (percent variation of hematic flow, left vertebral arteria) (vertebral arteria; 5 mg/kg) [%] | solubility in alcohol (Solubility) | solubility (solvent not given) (Solubility; solvent not stated) | Max. conc. time [2] [min] | % increase (percent variation of hematic flow, left vertebral arteria) (vertebral arteria) [%]
1 | CC[C@]12CCCN3CCc4c(n(c5ccccc45)[C@@](O)(C(=O)OC)C1)[C@@H]32 [Example 21.a] | insoluble | insoluble | 900 | modest | 20 | 30.0 | – | – | – | –
2 | CC[C@@]12C=C(C(=O)OC)n3c4c(c5ccccc53)CCN(CCC1)[C@H]42 [Example 21.b, Apovincamine caproate] | – | insoluble | 1900 | light | 60 | 36.4 | insoluble | – | – | –
3 | CC[C@]12CCCN3CCc4c(n(c5ccccc45)[C@@](O)(C(=O)OC)C1)[C@@H]32 [Example 22.a, Vincamine caprate] | insoluble | insoluble | 2000 | negligible | 120 | 23.9 | – | – | – | –
4 | CC[C@@]12C=C(C(=O)OC)n3c4c(c5ccccc53)CCN(CCC1)[C@H]42 [Example 22.b, Apovincamine caprate] | – | insoluble | 1900 | light | 240 | 28.2 | insoluble | – | – | –
5 | CC[C@]12CCCN3CCc4c(n(c5ccccc45)[C@@](O)(C(=O)OC)C1)[C@@H]32 [Example 25.a, Vincamine (D,L)-mandelate] | insoluble | insoluble | 900 | modest | 20 | 39.4 | soluble | – | – | –
6 | CC[C@]12CCCN3CCc4c(n(c5ccccc45)[C@@](O)(C(=O)OC)C1)[C@@H]32 [Example 26.a] | insoluble | insoluble | 1000 | modest | 120 | 23.8 | – | – | – | –
7 | CC[C@@]12C=C(C(=O)OC)n3c4c(c5ccccc53)CCN(CCC1)[C@H]42 [Example 26.b, Apovincamine indolyl-3-acetate] | – | insoluble | 750 | modest | 120 | 28.7 | poorly soluble | – | – | –
8 | CC[C@]12CCCN3CCc4c(n(c5ccccc45)[C@@](O)(C(=O)OC)C1)[C@@H]32 [Example 27.a, Vincamine hydroquinone] | insoluble | insoluble | 500 | modest | 120 | 29.1 | – | – | – | –
9 | CC[C@]12CCCN3CCc4c(n(c5ccccc45)[C@@](O)(C(=O)OC)C1)[C@@H]32 [Example 28.a, Vincamine salicylate] | insoluble | insoluble | 700 | modest | 240 | 25.7 | soluble | – | – | –
10 | CC[C@@]12C=C(C(=O)OC)n3c4c(c5ccccc53)CCN(CCC1)[C@H]42 [Example 28.b, Apovincamine salicylate] | – | – | 750 | modest | 240 | 26.7 | soluble | – | – | –
11 | CC[C@]12CCCN3CCc4c(n(c5ccccc45)[C@@](O)(C(=O)OC)C1)[C@@H]32 [Example 29.a, Vincamine dihydroxyphenylalanine (DOPA)] | practically insoluble | practically insoluble | 1500 | light | 20 | 38.2 | – | – | – | –
12 | CC[C@@]12C=C(C(=O)OC)n3c4c(c5ccccc53)CCN(CCC1)[C@H]42 [Example 29.b, Apovincamine dihydroxyphenylalanine] | – | – | 900 | light | 120 | 41.3 | – | insoluble | – | –
13 | Apovincamine alginate [Example 23.b] | – | insoluble | 750 | modest | – | – | insoluble | – | 60 | 38.0
14 | Apovincamine-pectin (1:1 adduct) [Example 30.b] | – | – | 750 | modest | – | – | little soluble | – | 60 | 39.6
15 | Apovincamine-pectin (2:1 adduct) [Example 31.b] | – | insoluble | 900 | light | – | – | poorly soluble | – | 480 | 28.2
16 | Vincamine alginate [Example 23.a] | insoluble | insoluble | 550 | modest | – | – | – | – | 20 | 34.7
17 | Vincamine pectin (1:1 adduct) [Example 30.a] | insoluble | insoluble | 2000 | negligible | – | – | – | – | 20 | 40.0
18 | Vincamine tannate [Example 24.a] | – | – | 700 | modest | – | – | soluble | – | 240 | 26.2
19 | Vincamine-pectin (2:1 adduct) [Example 31.a] | practically insoluble | practically insoluble | 2000 | negligible | – | – | – | – | 240 | 24.9
